# Where two headings read alike, the source gives them in different places.
# Tests used:
# [1] = biological target: T1, KCNQ2/3 potassium channel (Homo sapiens, UniProt O43525+O43526); experiment: Two-microelectrode voltage-clamp of Xenopus oocytes expressing equimolar KCNQ2 plus KCNQ3; format: cell-based; settings: for fold induction at 10 µM: read-out: increase of outward KCNQ current amplitude, 10µM retigabine; for increase of the rate of current activation: data fitted to a single exponential
# T1 construct: expressed in transfected cells; host or cells: Xenopus laevis oocytes injected with capped cRNA (KCNQ2 in pCIN3, KCNQ3 in pCIH6)
# T1 sequence (O43526 1-844 isoform O43526-3): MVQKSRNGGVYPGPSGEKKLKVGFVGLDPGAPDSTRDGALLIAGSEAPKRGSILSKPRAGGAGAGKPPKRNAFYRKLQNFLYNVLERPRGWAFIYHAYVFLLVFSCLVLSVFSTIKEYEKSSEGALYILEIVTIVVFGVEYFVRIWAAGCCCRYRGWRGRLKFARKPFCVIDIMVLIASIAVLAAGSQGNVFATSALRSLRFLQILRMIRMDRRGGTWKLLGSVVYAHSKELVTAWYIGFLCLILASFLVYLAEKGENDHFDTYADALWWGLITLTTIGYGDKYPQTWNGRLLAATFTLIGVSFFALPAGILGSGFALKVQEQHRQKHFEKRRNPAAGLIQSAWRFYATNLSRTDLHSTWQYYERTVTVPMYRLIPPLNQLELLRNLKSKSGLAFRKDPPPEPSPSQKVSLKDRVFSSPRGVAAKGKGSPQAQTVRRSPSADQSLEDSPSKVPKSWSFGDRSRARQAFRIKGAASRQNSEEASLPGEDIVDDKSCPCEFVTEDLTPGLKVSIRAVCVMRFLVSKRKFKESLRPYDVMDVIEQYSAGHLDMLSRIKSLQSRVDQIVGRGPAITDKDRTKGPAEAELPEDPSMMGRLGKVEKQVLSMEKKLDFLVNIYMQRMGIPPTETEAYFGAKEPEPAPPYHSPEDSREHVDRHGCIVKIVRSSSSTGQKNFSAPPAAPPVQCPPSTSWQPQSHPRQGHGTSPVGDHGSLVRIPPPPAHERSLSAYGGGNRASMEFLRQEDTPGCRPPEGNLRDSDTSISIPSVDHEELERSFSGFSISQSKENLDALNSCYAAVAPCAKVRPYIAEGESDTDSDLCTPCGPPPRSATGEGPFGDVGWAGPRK
# T1 sequence (O43525 whole entry): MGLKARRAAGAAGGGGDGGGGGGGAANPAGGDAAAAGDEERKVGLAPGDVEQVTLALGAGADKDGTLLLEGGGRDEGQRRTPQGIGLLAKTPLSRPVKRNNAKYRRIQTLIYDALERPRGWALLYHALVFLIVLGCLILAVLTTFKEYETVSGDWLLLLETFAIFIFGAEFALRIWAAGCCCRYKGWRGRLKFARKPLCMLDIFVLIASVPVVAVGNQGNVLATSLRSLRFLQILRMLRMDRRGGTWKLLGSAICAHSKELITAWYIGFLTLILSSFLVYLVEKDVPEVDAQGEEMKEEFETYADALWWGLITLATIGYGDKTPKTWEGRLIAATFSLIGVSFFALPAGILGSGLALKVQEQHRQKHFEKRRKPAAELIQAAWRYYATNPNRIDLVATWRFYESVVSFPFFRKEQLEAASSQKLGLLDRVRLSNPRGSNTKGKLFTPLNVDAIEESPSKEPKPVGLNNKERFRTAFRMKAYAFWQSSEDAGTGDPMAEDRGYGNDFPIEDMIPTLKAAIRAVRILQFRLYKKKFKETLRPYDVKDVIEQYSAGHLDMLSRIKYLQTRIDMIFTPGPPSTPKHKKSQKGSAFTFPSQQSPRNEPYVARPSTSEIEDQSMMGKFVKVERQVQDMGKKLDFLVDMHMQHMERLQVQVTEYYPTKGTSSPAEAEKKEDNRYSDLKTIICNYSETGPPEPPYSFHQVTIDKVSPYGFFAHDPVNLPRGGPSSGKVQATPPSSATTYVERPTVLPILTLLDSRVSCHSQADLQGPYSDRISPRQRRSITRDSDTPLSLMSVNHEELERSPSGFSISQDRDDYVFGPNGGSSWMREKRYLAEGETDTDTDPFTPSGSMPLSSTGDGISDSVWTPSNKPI
# Excerpt: Human KCNQ2 and KCNQ3 potassium channels were cloned from a human brain CDNA library using standard methodology. All clones were sequenced and were identical to those reported in the literature (Charlier, C., Singh, N.A., Ryan, S.G., Lewis, T.B., Reus, B. E., Leach, R.J. Leppert, M. (1998). A pore mutation in a novel KQT-like potassium channel gene in an idiopathic epilepsy family. Nature Genetics 18: 53-55 and Singh, N.A., Charlier, C., Stauffer, D., DuPont, B.R., Leach, R.J., Melis, R., Ronen, G.M., Bjerre, I., Quattlebaum, T., Murphy, J.V., McHarg, M.L., Gagnon, D., Rosales, T.O., Peiffer, A., Anderson, E & Leppert, M. (1998) Nature Genetics, 18: 25-29).
# Adult female Xenopus laevis (Blades Biologicals) were anaesthetised using 0.2% tricaine (3-aminobenzoic acid ethyl ester), killed and the ovaries rapidly removed. Oocytes were de-folliculated by collagenase digestion (Sigma type I, 1.5 mg ml^-1) in divalent cation-free OR2 solution (82.5mM NaCl, 2.5mM KCI, 1.2mM NaH2PO4, 5mM HEPES; pH 7.5 at 25°C). Single stage V and VI oocytes were transferred to ND96 solution (96mM NaCl, 2mM KCI, 1mM MgCl2, 1.8mM CaCl2, 5mM HEPES; pH 7.5 at 25°C) which contained 50µg ml^- ^1 gentamycin and stored at 18°C.
# KCNQ2 (in pCIN3 vector) and KCNQ3 (in pCIH6) were linearised and transcribed to RNA using T7 or T3 polymerase (Promega Wizard kit). m'G(5')pp(5')GTP capped cRNA was injected into oocytes (20-50nl of 1µgµl^-1 RNA per oocyte) and whole-cell currents were recorded using two-microelectrode voltage-clamp (Geneclamp amplifier, Axon instruments Inc.) 3 to 5 days post-RNA injection. […] In all experiments oocytes were voltage-clamped at a holding potential of -90mV in ND96 solution (superfused at 2ml per min.) and test compounds were applied by addition to this extracellular solution. Current-voltage curves were constructed by applying 800ms voltage-clamp pulses from the holding potential of -90mV to test potentials between -85mV and +30mV..
# Whole-cell currents were recorded from oocytes expressing KCNQ2 alone, KCNQ3 alone and an equimolar combination of KCNQ2 plus KCNQ3. Mean current amplitude (at +20mV) was 152 +/- 21 nA for KCNQ2 alone, 157 +/-19nA for KCNQ3 alone and 1467 +/- 420nA for KCNQ2 & KCNQ3. Further characterisation of the KCNQ2/KCNQ3 heteromeric channel (current-voltage curve, conductance plot, linopirdine block) gave similar results to those reported in the literature (Yang, W.-P., Levesque, P.C., Little, W.A., Conder, M.L., Ramakrishnan, P., Neubauer, M.G. & Blanar, M.A, (1998) Functional expression of two KvLQT1-related potassium channels responsible for an inherited idiopathic epilepsy. J. Biol. Chem., 31: 19419-19423 and Wang, H.-S., Pan, Z., Shi, W., Brown, B.S.,. Wymore, R.S., Cohen, I.S., Dixon, J.E. & McKinnon, D (1998) KCNQ2 and KCNQ3 potassium channel subunits: molecular correlates of the M-channel. Science 282: 1890-1893).
# The effects of retigabine were studied in oocytes expressing equimolar KCNQ2 plus KCNQ3. Application of 10µM retigabine led to a pronounced 20mV hyperpolarising shift in the threshold for KCNQ current activation (n=5), such that an augmentation of KCNQ current was seen over the normal physiological range of membrane potentials. For example, at a test potential of -60mV, outward KCNQ current amplitude increased 8-fold in the presence of retigabine (6.2-fold at -70mV; 7.1-fold at -50mV; n=5). These changes in KCNQ current amplitude were associated with an increase in the rate of current activation: Retigabine increased the rate of current activation 15-fold at a test potential of -40mV, and 3-fold at a test potential of -30mV (data fitted to a single exponential in each case).
# Application of retigabine led to a marked alteration in the properties of the KCNQ2/3 tail currents. In these experiments the voltage clamp protocols comprised a 1s prepulse from -100mV to +40mV to fully activate the KCNQ2/3 channel, followed by a 6s pulse to test potentials between -30mV and -110mV.
# [2] = biological target: T1, KCNQ2/3 potassium channel; experiment: Current clamp of oocytes expressing KCNQ2 plus KCNQ3: hyperpolarisation of the cell; format: cell-based
# KCNQ2 = biological target: T2, KCNQ2 (Homo sapiens, UniProt O43526); experiment: Voltage-clamp of Xenopus oocytes expressing KCNQ2 alone (pSP64t vector); format: cell-based; settings: 10µM retigabine
# T2 construct: expressed in transfected cells; host or cells: Xenopus oocytes, expression vector pSP64t
# T2 sequence (O43526 1-844 isoform O43526-3): as the sequence (O43526 1-844 isoform O43526-3) above
# [3] = system: carageenan model of inflammatory pain; experiment: Carageenan model of inflammatory pain; format: in vivo
# Excerpt: Br. J. Pharmacol. 120: P78).
# [4] = system: pentylene tetrazol-induced seizures in rats; settings: protection against pentylene tetrazol-induced seizures in rats; cited from earlier work
structure (smiles),measurement,setting,value
"CCOC(=O)Nc1ccc(NCc2ccc(F)cc2)cc1N [retigabine, 2-amino-4-(4-fluorobenzylamino)-1-ethoxycarbonylaminobenzene]",hyperpolarising shift in the threshold for KCNQ current activation,"[1]; 10µM retigabine, oocytes expressing equimolar KCNQ2 plus KCNQ3, n=5",20 mV
same,fold induction at 10 µM,"[1]; test potential -50mV, n=5",7.1
same,fold induction at 10 µM,"[1]; test potential -60mV, n=5",8
same,fold induction at 10 µM,"[1]; test potential -70mV, n=5",6.2
same,increase of the rate of current activation,[1]; test potential -30mV,3 fold
same,increase of the rate of current activation,[1]; test potential -40mV,15 fold
same,KCNQ2/3 tail current deactivation,"[1]; test potentials -30mV, -40mV after 1s prepulse from -100mV to +40mV",deactivation does not occur
same,rate of KCNQ2/3 channel deactivation in comparison to control,[1]; test potentials -50mV to -110mV after 1s prepulse from -100mV to +40mV,significantly slowed
same,EC50,[2],5.2 µM
same,Hill slope,[2]; hyperpolarisation of oocytes held under current clamp,1.1 ± 0.1
same,mean delay (rate of current activation),"KCNQ2; at -40mV, control 132+/-16ms",75 ± 7 ms
same,KCNQ current amplitude,"KCNQ2; at -50mV, n=7, control = 145+/-34nA",501+/-116 nA
same,hyperpolarising shift in the threshold for KCNQ2 current activation,KCNQ2; oocytes expressing KCNQ2 alone,20 mV
same,ED50,[3],4.5 mg/kg
same,ED50,[4],6.2 mg/kg
